In patent publication US10406227B2, “Photoactivated molecules for light-induced modulation of the activity of electrically excitable cells and methods of using same” (University of Southern California, priority 2012, dated 2019):
Entries after “also recorded” stand apart in the source; their conditions may differ.

Key:
[1] = system: INS cells; test: Imaging RubpyC17 in live cells (membrane luminescence); format: cell-based, rat
Method: (§1) Cells were imaged at 1-3 days after plating. The glass-bottomed chambers with adherent cells were washed twice with PBS and then filled with standard extracellular solution consisting of 140 mM NaCl, 2.8 mM KCl, 10 mM HEPES, 1 mM MgCl2, 2 mM CaCl2, and 10 mM glucose, pH adjusted to 7.2-7.4 and osmolarity adjusted to 290-310 mOsm. The chamber was then mounted on an Olympus IX70 inverted microscope stage for imaging, using a Cascade 512B EMCCD camera, operated by Metamorph software. Initial imaging was done with cells in extracellular solution without RubpyC17, first under brightfield to evaluate cell health and morphology, then under widefield argon ion laser illumination at 488 nm (Coherent, Innova 90-5, Santa Clara, Calif.), to evaluate autofluorescence. Next, the extracellular solution was removed and replaced with extracellular solution containing the RubpyC17 compound (10 μM in ≤0.01% DMSO, final concentrations). Cell images were then acquired with illumination at 488 nm (collected with a long-pass red emission filter). For electrophysiological experiments, RubpyC17 compound was added to the extracellular solution (2-10 μM in ≤0.01% DMSO, final concentrations as indicated) and cells were incubated for 1.5-45 min, as indicated, then washed with extracellular solution without RubpyC17. Some chromaffin cells were also exposed continuously to 490-900 nM RubpyC17-containing extracellular solution.
(§2) Illustrated here are rat insulinoma INS cells (FIG. 1C, top), human embryonic kidney (HEK293T) cells (FIG. 1C, middle), and primary cultured mouse chromaffin cells (FIG. 1C, bottom). […] All cell types preserved morphology for at least 10 minutes. […] One embodiment of the possible light-induced electron transfer is depicted in FIG. 1D.

[2] = system: HEK293T cells; test: as above; format: cell-based, human
Method: as §1, §2

[3] = system: mouse chromaffin cells; test: Carbon fiber amperometry of light-triggered secretion; format: cell-based
Method: Carbon fiber electrodes were prepared using established methodology and coupled to an EPC10 amplifier. A+800 mV constant voltage was applied to the electrode relative to the Ag/AgCl bath electrode. The amperometry recordings were sampled at 4 kHz using Pulsemaster (HEKA). Extracellular composition consisted of 120 mM NaCl, 20 mM KCl, 10 mM HEPES, 1 mM MgCl2, 2 mM CaCl2, 10 mM glucose, pH adjusted to 7.2-7.4, and osmolarity adjusted to 290-300. Light stimulation in the blue spectrum originated from a xenon lamp source through a 470/40 nm bandpass excitation filter. The duration of illumination varied and is indicated by bars on figures.
Action potential firing triggers secretion of norepinephrine and epinephrine from adrenal chromaffin cells, which can be readily detected by the technique of carbon-fiber amperometry, thus serving as a surrogate to detect action potential firing. […] Out of 18 RubpyC17-loaded cells tested, 15 cells (83%) experienced increased secretion by at least 100-fold during light illumination. Unlike the changes in light-induced depolarization, light-induced changes in secretion appeared to be more transient. One possible explanation for this is that at any moment in time, there are only a small number of release-competent vesicles—the so-called readily releasable pool of vesicles—and maintained stimulation causes rapid depletion of the readily releasable pool of vesicles in the initial phase of stimulation.

[4] = system: leech ganglion neurons; test: Ex vivo leech ganglion neuron recording; format: cell-based, Hirudo verbana; conditions: ex vivo ganglia
Method: Adult leeches Hirudo verbana will be obtained from Niagara Medical Leeches, Inc. (Westbury, N.Y., USA). Groups (20-30) of animals will be kept in glass aquaria with artificial pond water (36 mg/L Instant Ocean salts; Aquarium Systems, Mentor Ohio), in a temperature-controlled room at 16° C. and a 12:12 h light:dark cycle. At the time of experiments, leeches will weigh 1-3 g. Before dissection, the leech will be anesthetized in ice-cold leech saline. Leech saline has the following composition (in mM per liter): NaCl-115, KCl-4, CaCl2-1.8, MgCl2-2, HEPES-10, D-Glucose-5 (Sigma-Aldrich, USA). Individual ganglia will be dissected from the mid-body segments M6-M12, and pinned down in Sylgard-filled dissection box. Medial dorsal longitudinal incision will be made and the blood will be flushed away. Connective tissue and the blood vessel overlaying the ganglion chain will be incised. Dissected ganglia will be transferred to a Petri dish, pinned down in paraffin with six stainless steel pins (dorsal side up). PVNs will be microinjected into the extracellular space of the ganglion with a glass micropipette. Intracellular recording will be performed by penetrating the Retzius neurons with sharp glass electrodes (20-30 MOhm) filled with 3M potassium acetate. […] Neuronal firing will be recorded before and after the injections.

[5] = system: RCS rats; test: Pupillary light reflex after intravitreal injection; format: in vivo, rat
Source text: FIG. 16 depicts the papillary light response in RCS rats.
This finding was reproduced in 3 of 3 RCS rats injected with Rubpy-C17, and in 2 of 2 control (sham injection) RCS rats.

[6] = 10 μM in bath, 488 nm excitation
[7] = 10 minutes after RubpyC17 removal

[Ru(bpy)2(bpy-C17)](PF6)2 [RubpyC17]
time cell morphology preserved ([1]; 10 μM RubpyC17): at least 10 minutes
incorporation into plasma membrane (membrane-localized luminescence) [1, 6]: rapidly and stably incorporates into mammalian cell membranes
membrane luminescence after removal from bath solution [1, 7]: still observed
time cell morphology preserved ([2]; 10 μM RubpyC17): at least 10 minutes
incorporation into plasma membrane (membrane-localized luminescence) [2, 6]: rapidly and stably incorporates into mammalian cell membranes
membrane luminescence after removal from bath solution [2, 7]: still observed
light-triggered secretion (amperometric spikes) ([3]; 2 μM RubpyC17, 488 nm): exhibited numerous amperometric current spikes
cells with increased secretion during light illumination ([3]; 15 of 18 RubpyC17-loaded cells): 83%
increase in secretion during light illumination ([3]; responding cells): at least 100 fold
light-induced action potential firing [4]: respond to illumination by firing action potentials; also recorded: light-induced increases in action potential firing
pupillary light reflex time ([5]; injected eye): < 3 s
pupillary light reflex ([5]; injected eye vs non-injected eye): vigorous pupillary light reflex was observed; also recorded: pupil constricts
